The values below are quoted from earlier work in patent US8202545B2, “Nutraceutical for the prevention and treatment of cancers and diseases affecting the liver” (Canthao Corporation, priority 2003, dated 2012).

In data set [1] the test system is recurrent and second primary hepatomas. The following applies: treated group vs placebo 49%, P=0.04.
The next data set relates to chronic hepatitis. The following applies: chronic hepatitis patients.
Setting [2] is: latest phase III clinical trial.

Take `O=C1O[C@H]([C@@H](O)CO)C(O)=C1O` [ascorbic acid]: the “AFP level in cells” value in the data set on human hepatoma cell (decreased from 302) is 90. In the data set on human hepatoma cell (human hepatoma cells), the “cellular growth inhibition as compared to controls” value was “approximately 60%”.

`COc1cccc2c1C(=O)c1c(O)c3c(c(O)c1C2=O)C[C@@](O)(C(=O)CO)C[C@@H]3O[C@H]1C[C@H](N)[C@H](O)[C@H](C)O1` [Doxorubicin]: in the data set with liver cancer (setting [2]), the “median survival of patients treated” value is recorded as 7 months and the response rate is reported as 11%. In addition, in the data set with liver cancer (liver cancer patients), the “patients in whom agent is effective” value is listed as “less than 20%”. Further, the median survival result with liver cancer (liver cancer patients (Leung and Johnson 2001)) was “less than 6 months”.

Consider `CC(C)=CCC/C(C)=C/CC/C(C)=C/C=C/C(C)=C/C(=O)O` [acyclic retinoid, polyprenoic acid], for which the “incidence of recurrent or new hepatoma” value in data set [1] is given as 27%.

Consider interferon, for which the “overall response rate (normalization of liver enzyme levels and reduction of viral load)” value in the data set on chronic hepatitis is “roughly 50%”.
